The record followed here is patent US20010041676A1, “Glycosides and orthoester glycosides of glucocorticoids and uses thereof” (priority 2000, published 2001).

Read-outs that look alike come from different tables or passages of the source.

Series [1] can be described thus: in vivo. To be noted: rat, serum, 20 mg.
Description: (§1) 1 ml of rat serum was introduced into Varian-abselut (3 ml) cartridge (Part number SP12103100; analytical sample preparation and solid phase extraction use cartridge). Suction was applied and the cartridge was washed with 3 ml of water followed by 2 ml of water. The cartridges were dried under suction for 5 minutes and a jet stream of argon was blown to dry the trace amounts of water. The cartridge was washed once with 3 ml of hexane and the steroidal portion was eluted with 5 ml of methanol. The methanol portion was dried under nitrogen. The dried extract, which contains prednisolone or the glucoside, was constituted with 300 μl of ethyl acetate-methanol mixture (290 μl of ethyl acetate and 10 μl of methanol). 100 μl injections were made using manual injections in the HPLC instrument.
(§2) Hewlett Packard-Agilent 1100 series instrument with UV detector G1315A and a manual injector with a 100 μL loop were used in the assay.
(§3) The solvents used in the elution were a mixture of methanol (2 parts), ethyl acetate (42 parts) and hexane (56 parts). The mixture was run at a flow rate of 1 ml per minute.
(§4) The serum prednisolone and prednisolone glucoside levels were assessed from the animals dosed with either 20 mg of prednisolone or 29 mg of prednisolone glucoside (20 mg equivalent). The animals were sacrificed after 30 minutes and 60 minutes.
(§5) The serum prednisolone levels were calculated based upon the HPLC analyses of prednisolone and prednisolone glucoside. These values are calculated based upon the mAU and area values calculated against the standards.
For series [2] the following is noted: rat serum; for Serum prednisolone-glycoside: prednisolone-glucoside group (29 mg); for Serum Prednisolone: prednisolone-glucoside group (29 mg, 20 mg equivalent).
Description: as §1, §2, §3, §4, §5
The conditions of series [3]: pH 1.0, 20 mg/ml, room temperature, up to 72 hours.
Description: The acid stability of prednisolone glucoside was qualitatively assessed by thin layer chromatography (TLC).
Prednisolone glucoside was suspended in pH 1.0 (freshly prepared from 10 M HCl solution) at a concentration of 20 mg/ml and stirred as a turbid solution at room temperature for 72 hours. At 24 and 48 hours, 100 μl aliquots were removed and diluted with about 200 μl of methanol to make a homogeneous solution. Approximately 50 μl was applied to a TLC plate (Sigma-Aldrich #Z 29298-2, made by Merck—silica TLC plates) with several repeated small applications. As controls, standard applications of 10 μg of fresh prednisolone glucoside, dissolved in 100 μl of methanol, and about 10 μg of prednisolone, in 50 μl of methanol, were applied at separate spots. Several repeated small applications were used to minimize the size of applied spot.
The TLC plates were initially eluted with ethyl acetate and then illuminated with the Aldrich's hand held model UV source (short UV light source used, Spectroline #1281657). The TLC plates were then dried, reeluted with methanol and then illuminated again with the UV source.

In series [1], `C[C@]12C=CC(=O)C=C1CC[C@@H]1[C@@H]2[C@@H](O)C[C@@]2(C)[C@H]1CC[C@]2(O)C(=O)CO` [Prednisolone, prednisolone] yielded a concentration at 30 min of 350 ng/mL and a concentration at 60 min of 156 ng/mL.
Consider `C[C@]12C=CC(=O)C=C1CC[C@@H]1[C@@H]2[C@@H](O)C[C@@]2(C)[C@H]1CC[C@]2(O)C(=O)CO[C@@H]1O[C@H](CO)[C@@H](O)[C@H](O)[C@H]1O` [Prednisolone-glucoside, 1,4-pregnadiene-11β-17α-diol-21-O-1′-β′-glucopyranosyl-3,20-dione], for which, in series [2] (30 mins), the Serum prednisolone-glycoside came out at 639 ng/mL and the “Serum Prednisolone” value came out at 861 ng/mL. For the same molecule, in series [2] (60 mins), the Serum prednisolone-glycoside worked out at 0 ng/mL and the “Serum Prednisolone” value worked out at 349.5 ng/mL. Also, the “Acid stability (qualitative, TLC)” value in series [3] is recorded as “stable”.
